Read-outs that look alike come from different tables or passages of the source.
How the values were obtained:
Type in all cases: cell-based
hMC3-R = target: T1, hMC3-R (Homo sapiens, UniProt P41968); test: cyclic AMP bioassay, hMC3-R
T1 construct: expressed in transfected cells; host or cells: CHO-K1
Description: (§1) Intracellular cyclic AMP (cAMP) levels were determined by an electrochemiluminescence (ECL) assay (Meso Scale Discovery®, Gaithersburg, Md.; referred to hereinafter as MSD). […] Transgenic CHO-K1 cells stably expressing hMC receptor subtypes 1, 3, 4 or 5 were dispensed at a density of approximately 7,000 cells/well in 384-well Multi-Arrays plates (MSD) containing integrated carbon electrodes and coated with anti-CAMP antibody. Increasing concentrations of the test compounds were added and the cells were incubated for approximately 40 minutes at approximately 37° C. […] At the end of the second incubation period read buffer (Tris-buffered solution containing an ECL co-reactant and Triton X-100 at ph 7.8) was added and the cAMP levels in the cell lysates were immediately determined by ECL detection with a Sector Imager 6000 Reader® (MSD). Data were analyzed using a computer-assisted non-linear regression analysis (XL fit; IDBS) and reported as either an EC50 value or a Kb value.
(§2) The Kb value reflects the potency of an antagonist and is determined by Schild analysis. In brief, concentration-response curves of an agonist are carried out in the presence of increasing concentrations of an antagonist. […] It is calculated by extrapolating the line on a Schild plot to zero on the y-axis.

hMC4-R = target: T2, hMC4-R (Homo sapiens, UniProt P32245); test: cyclic AMP bioassay, hMC4-R
T2 construct: expressed in transfected cells; host or cells: CHO-K1
Description: as §1, §2

hMC1-R = target: T3, hMC1-R (Homo sapiens, UniProt Q01726); test: cyclic AMP bioassay, hMC1-R
T3 construct: expressed in transfected cells; host or cells: CHO-K1

hMC5-R = target: T4, hMC5-R (Homo sapiens, UniProt P33032); test: cyclic AMP bioassay, hMC5-R
T4 construct: expressed in transfected cells; host or cells: CHO-K1

[1] = Table 3A, cAMP in CHO-K1 cells, antagonist potency by Schild analysis, read-out: Kb hMC3-R
[2] = Table 3A, cAMP in CHO-K1 cells, antagonist potency by Schild analysis, read-out: Kb hMC4-R

T2 sequence (P32245 whole entry): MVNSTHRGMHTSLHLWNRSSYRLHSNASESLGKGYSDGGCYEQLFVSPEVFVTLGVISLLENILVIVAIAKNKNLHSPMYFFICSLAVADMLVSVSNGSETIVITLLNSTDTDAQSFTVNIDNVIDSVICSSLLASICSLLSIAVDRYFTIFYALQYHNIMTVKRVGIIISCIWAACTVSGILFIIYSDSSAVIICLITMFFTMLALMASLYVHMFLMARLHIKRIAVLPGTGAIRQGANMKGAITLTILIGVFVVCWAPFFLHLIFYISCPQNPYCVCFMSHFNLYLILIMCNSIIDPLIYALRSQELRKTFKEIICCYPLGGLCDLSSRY
T3 sequence (Q01726 whole entry): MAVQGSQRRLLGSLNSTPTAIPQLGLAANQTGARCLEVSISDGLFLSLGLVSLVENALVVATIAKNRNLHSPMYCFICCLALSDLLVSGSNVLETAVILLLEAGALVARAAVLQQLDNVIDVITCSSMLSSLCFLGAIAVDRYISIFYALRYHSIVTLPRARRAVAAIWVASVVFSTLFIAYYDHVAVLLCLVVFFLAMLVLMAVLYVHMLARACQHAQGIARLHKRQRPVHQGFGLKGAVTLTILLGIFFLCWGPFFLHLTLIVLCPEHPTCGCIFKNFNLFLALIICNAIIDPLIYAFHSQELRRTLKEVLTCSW
T1 sequence (P41968 whole entry): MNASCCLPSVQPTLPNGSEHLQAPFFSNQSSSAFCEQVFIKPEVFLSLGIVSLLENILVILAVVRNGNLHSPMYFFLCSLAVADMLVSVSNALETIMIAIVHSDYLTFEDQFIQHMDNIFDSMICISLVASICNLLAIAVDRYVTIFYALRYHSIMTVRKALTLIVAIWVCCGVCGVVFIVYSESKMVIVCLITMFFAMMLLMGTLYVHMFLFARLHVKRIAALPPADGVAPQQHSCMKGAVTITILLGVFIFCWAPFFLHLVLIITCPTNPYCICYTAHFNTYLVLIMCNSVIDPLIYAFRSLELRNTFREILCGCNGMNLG
T4 sequence (P33032 whole entry): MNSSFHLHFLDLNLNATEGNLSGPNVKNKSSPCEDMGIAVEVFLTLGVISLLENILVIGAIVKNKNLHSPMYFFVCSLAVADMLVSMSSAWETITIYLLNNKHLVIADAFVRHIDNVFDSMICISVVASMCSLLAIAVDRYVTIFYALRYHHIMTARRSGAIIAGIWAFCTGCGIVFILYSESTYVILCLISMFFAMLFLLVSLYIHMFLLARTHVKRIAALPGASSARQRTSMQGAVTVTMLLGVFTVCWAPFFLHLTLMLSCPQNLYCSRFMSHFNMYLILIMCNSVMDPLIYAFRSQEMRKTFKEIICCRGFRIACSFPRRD

| Compound | Kb (hMC3-R; [1]) [nM] | Kb (hMC4-R; [2]) [nM] | EC50 (hMC1-R) [nM] | EC50 (hMC5-R) [nM] | also measured |
| --- | --- | --- | --- | --- | --- |
| CCCC[C@H](NC(=O)COCCOCCNC(=O)[C@H](CCCNC(=N)N)NC(=O)[C@H](CCCNC(=N)N)NC(=O)[C@H](CCCNC(=N)N)NC(=O)[C@H](CCC(N)=O)NC(=O)[C@H](CCCNC(=N)N)NC(=O)[C@H](CCCNC(=N)N)NC(=O)[C@H](CCCCN)NC(=O)[C@H](CCCCN)NC(=O)[C@H](CCCNC(=N)N)NC(=O)CNC(=O)[C@@H](N)Cc1ccc(O)cc1)C(=O)N[C@H]1CC(=O)NCCCC[C@@H](C(N)=O)NC(=O)[C@H](Cc2c[nH]c3ccccc23)NC(=O)[C@H](CCCNC(=N)N)NC(=O)[C@@H](Cc2ccc3ccccc3c2)NC(=O)[C@H](Cc2c[nH]cn2)NC1=O | 395 | 16.8 | – | – | – |
| CCCC[C@H](N)C(=O)N[C@H]1CC(=O)NCCCC[C@@H](C(=O)NCCC(=O)N[C@@H](Cc2ccc(O)cc2)C(=O)NCC(=O)N[C@@H](CCCNC(=N)N)C(=O)N[C@@H](CCCCN)C(=O)N[C@@H](CCCCN)C(=O)N[C@@H](CCCNC(=N)N)C(=O)N[C@@H](CCCNC(=N)N)C(=O)N[C@@H](CCC(N)=O)C(=O)N[C@@H](CCCNC(=N)N)C(=O)N[C@@H](CCCNC(=N)N)C(=O)N[C@@H](CCCNC(=N)N)C(N)=O)NC(=O)[C@H](Cc2c[nH]c3ccccc23)NC(=O)[C@H](CCCNC(=N)N)NC(=O)[C@@H](Cc2ccc3ccccc3c2)NC(=O)[C@H](Cc2c[nH]cn2)NC1=O | 207 | 18.5 | – | – | – |
| CCCC[C@H](NC(C)=O)C(=O)N[C@H]1CSSC[C@@H](C(=O)NCCC(=O)NCC(=O)N[C@@H](CCCNC(=N)N)C(=O)N[C@@H](CCCNC(=N)N)C(=O)N[C@@H](CCCNC(=N)N)C(=O)N[C@@H](CCCNC(=N)N)C(=O)N[C@@H](CCCNC(=N)N)C(=O)N[C@@H](CCC(N)=O)C(=O)N[C@@H](CCCNC(=N)N)C(=O)N[C@@H](CCCNC(=N)N)C(=O)N[C@@H](CCCNC(=N)N)C(N)=O)NC(=O)[C@H](Cc2c[nH]c3ccccc23)NC(=O)[C@H](CCCNC(=N)N)NC(=O)[C@@H](Cc2ccccc2)NC(=O)[C@H](Cc2c[nH]cn2)NC(=O)[C@@H](C)NC1=O | – | – | 0.481 | 2010 | EC50 (hMC3-R): 7.32 nM; EC50 (hMC4-R): 0.964 nM |
| CCCC[C@H](NC(C)=O)C(=O)N[C@H]1CSSC[C@@H](C(=O)NCCC(=O)N[C@@H](Cc2ccc(O)cc2)C(=O)NCC(=O)N[C@@H](CCCNC(=N)N)C(=O)N[C@@H](CCCNC(=N)N)C(=O)N[C@@H](CCCNC(=N)N)C(=O)N[C@@H](CCCNC(=N)N)C(=O)N[C@@H](CCCNC(=N)N)C(=O)N[C@@H](CCC(N)=O)C(=O)N[C@@H](CCCNC(=N)N)C(=O)N[C@@H](CCCNC(=N)N)C(=O)N[C@@H](CCCNC(=N)N)C(N)=O)NC(=O)[C@H](Cc2c[nH]c3ccccc23)NC(=O)[C@H](CCCNC(=N)N)NC(=O)[C@@H](Cc2ccccc2)NC(=O)[C@H](Cc2c[nH]cn2)NC(=O)[C@@H](C)NC1=O | – | – | 7.86 | 4900 | Kb (hMC3-R): 10.5 nM; Kb (hMC4-R): 0.843 nM |
| CC(=O)N[C@H]1CSSC[C@@H](C(=O)N2CCC[C@H]2C(=O)N2CCC[C@H]2C(=O)N[C@@H](CCCCN)C(=O)N[C@@H](CC(=O)O)C(=O)NCCC(=O)N[C@@H](CCCNC(=N)N)C(=O)N[C@@H](CCCNC(=N)N)C(=O)N[C@@H](CCCNC(=N)N)C(=O)N[C@@H](CCCNC(=N)N)C(=O)N[C@@H](CCCNC(=N)N)C(=O)N[C@@H](CCC(N)=O)C(=O)N[C@@H](CCCNC(=N)N)C(=O)N[C@@H](CCCNC(=N)N)C(=O)N[C@@H](CCCNC(=N)N)C(N)=O)NC(=O)[C@H](C)NC(=O)[C@H](Cc2ccc3ccccc3c2)NC(=O)[C@H](CCCNC(=N)N)NC(=O)[C@@H](Cc2ccc3ccccc3c2)NC(=O)[C@H](Cc2c[nH]cn2)NC(=O)[C@H](CCC(=O)O)NC1=O | – | – | 35.2 | 199 | Kb (hMC3-R): 22.9 nM; Kb (hMC4-R): 12.6 nM |
| CC(=O)N[C@H]1CSSC[C@@H](C(=O)N2CCC[C@H]2C(=O)N2CCC[C@H]2C(=O)N[C@@H](CCCCN)C(=O)N[C@@H](CC(=O)O)C(=O)NCCOCCOCC(=O)N[C@@H](Cc2ccc(O)cc2)C(=O)NCC(=O)N[C@@H](CCCNC(=N)N)C(=O)N[C@@H](CCCCN)C(=O)N[C@@H](CCCCN)C(=O)N[C@@H](CCCNC(=N)N)C(=O)N[C@@H](CCCNC(=N)N)C(=O)N[C@@H](CCC(N)=O)C(=O)N[C@@H](CCCNC(=N)N)C(=O)N[C@@H](CCCNC(=N)N)C(=O)N[C@@H](CCCNC(=N)N)C(N)=O)NC(=O)CNC(=O)[C@H](Cc2c[nH]c3ccccc23)NC(=O)[C@H](CCCNC(=N)N)NC(=O)[C@@H](Cc2ccc3ccccc3c2)NC(=O)[C@H](Cc2c[nH]cn2)NC(=O)[C@H](CCC(=O)O)NC1=O | 17.7 | 1.49 | – | – | – |
| CCCC[C@H](NC(C)=O)C(=O)N[C@H]1CC(=O)NCCCC[C@@H](C(=O)NCCC(=O)N[C@@H](Cc2ccc(O)cc2)C(=O)NCC(=O)N[C@@H](CCCNC(=N)N)C(=O)N[C@@H](CCCCN)C(=O)N[C@@H](CCCCN)C(=O)N[C@@H](CCCNC(=N)N)C(=O)N[C@@H](CCCNC(=N)N)C(=O)N[C@@H](CCC(N)=O)C(=O)N[C@@H](CCCNC(=N)N)C(=O)N[C@@H](CCCNC(=N)N)C(=O)N[C@@H](CCCNC(=N)N)C(N)=O)NC(=O)[C@H](Cc2c[nH]c3ccccc23)NC(=O)[C@H](CCCNC(=N)N)NC(=O)[C@@H](Cc2ccc3ccccc3c2)NC(=O)[C@H](Cc2c[nH]cn2)NC1=O | 220 | 4.07 | – | – | – |
| CCCC[C@H](NC(=O)[C@H](CCCNC(=N)N)NC(=O)[C@H](CCCNC(=N)N)NC(=O)[C@H](CCCNC(=N)N)NC(=O)[C@H](CCC(N)=O)NC(=O)[C@H](CCCNC(=N)N)NC(=O)[C@H](CCCNC(=N)N)NC(=O)[C@H](CCCCN)NC(=O)[C@H](CCCCN)NC(=O)[C@H](CCCNC(=N)N)NC(=O)CNC(=O)[C@@H](N)Cc1ccc(O)cc1)C(=O)N[C@H]1CC(=O)NCCCC[C@@H](C(N)=O)NC(=O)[C@H](Cc2c[nH]c3ccccc23)NC(=O)[C@H](CCCNC(=N)N)NC(=O)[C@@H](Cc2ccc3ccccc3c2)NC(=O)[C@H](Cc2c[nH]cn2)NC1=O | 4500 | 105 | – | – | – |
| CC(=O)N[C@H]1CSSC[C@@H](C(=O)N2CCC[C@H]2C(=O)N2CCC[C@H]2C(=O)N[C@@H](CCCCN)C(=O)N[C@@H](CC(=O)O)C(=O)N[C@@H](Cc2ccc(O)cc2)C(=O)NCC(=O)N[C@@H](CCCNC(=N)N)C(=O)N[C@@H](CCCCN)C(=O)N[C@@H](CCCCN)C(=O)N[C@@H](CCCNC(=N)N)C(=O)N[C@@H](CCCNC(=N)N)C(=O)N[C@@H](CCC(N)=O)C(=O)N[C@@H](CCCNC(=N)N)C(=O)N[C@@H](CCCNC(=N)N)C(=O)N[C@@H](CCCNC(=N)N)C(N)=O)NC(=O)CNC(=O)[C@H](Cc2c[nH]c3ccccc23)NC(=O)[C@H](CCCNC(=N)N)NC(=O)[C@@H](Cc2ccc3ccccc3c2)NC(=O)[C@H](Cc2c[nH]cn2)NC(=O)[C@H](CCC(=O)O)NC1=O | 233 | 26 | – | – | – |
| CCCC[C@H](NC(C)=O)C(=O)N[C@H]1CC(=O)NCCCC[C@@H](C(=O)N2CCC[C@H]2C(=O)N2CCC[C@H]2C(=O)N[C@@H](CCCCN)C(=O)N[C@@H](CC(=O)O)C(=O)N[C@@H](Cc2ccc(O)cc2)C(=O)NCC(=O)N[C@@H](CCCNC(=N)N)C(=O)N[C@@H](CCCCN)C(=O)N[C@@H](CCCCN)C(=O)N[C@@H](CCCNC(=N)N)C(=O)N[C@@H](CCCNC(=N)N)C(=O)N[C@@H](CCC(N)=O)C(=O)N[C@@H](CCCNC(=N)N)C(=O)N[C@@H](CCCNC(=N)N)C(=O)N[C@@H](CCCNC(=N)N)C(N)=O)NC(=O)[C@H](Cc2c[nH]c3ccccc23)NC(=O)[C@H](CCCNC(=N)N)NC(=O)[C@@H](Cc2ccc3ccccc3c2)NC(=O)[C@H](Cc2c[nH]cn2)NC1=O | 14.1 | 22.8 | – | – | – |

— patent US20090232838A1, “Ligands of melanocortin receptors” (priority 2005, published 2009)
